Tested on: breast cancer 4T1 cells
Assay: In vitro calreticulin (CRT) translocation by flow cytometry
Assay type: cell-based
Conditions: anti-CRT antibody staining, vs untreated control, FIG. 6A
Procedure: In a further experiment the ability of doxorubicin and doxorubicin double spacer prodrug and doxorubicin double spacer prodrug in polymeric micelles to induce immunogenicity of tumor cells was assessed in vitro. As one of the most studied phenotypes of immunogenic cell death, calreticulin (CRT) […] to outer surface of cancer cells is able to attract antigen presenting cells to endocytose apoptotic cancer cells. CRT translocation was measured by flow cryometry. To assess CRT translocation induced by the formulations, they were added to breast cancer 4T1 cells which were cultured overnight at 37° C. in RPMI 1640 medium containing 10% FBS and 1% penicillin. After incubation, the cells were washed with PBS and then detached. The CRT translocated to the outer surface of the cells was labeled with anti-CRT antibodies.

SMILES: COc1cccc2c1C(=O)c1c(O)c3c(c(O)c1C2=O)C[C@@](O)(C(=O)CO)C[C@@H]3O[C@H]1C[C@H](N)[C@H](O)[C@H](C)O1 [DOX, doxorubicin]
- signal of CRT in flow cytometry plots: higher signal of CRT compared to untreated control

— patent US20230293432A1, “POLYMERIC MICELLES COMPRISING GLUCURONIDE-PRODRUGS” (Rheinisch-Westfälische Technische Hochschule (RWTH), priority 2020, published 2023)
